≈ marks a conversion by molar mass, not a printed value.
Assays:
[1] = test system: tim10-1 tim9S suppressor strain; assay: Yeast growth inhibition (MIC50), tim10-1 tim9S suppressor strain; format: cell-based; conditions: Saccharomyces cerevisiae; disrupted for prd5 and snq2
[2] = test system: tim23 mutant; assay: Yeast growth inhibition (MIC50), tim23 mutant; format: cell-based; conditions: Saccharomyces cerevisiae; disrupted for prd5 and snq2
[3] = test system: strains lacking the mitochondrial genome (rho null); assay: Yeast growth inhibition, rho null strains; format: cell-based
Description: In general, a standard set of genetic and molecular techniques were used to generate the strains in this study (31, 32). Screening strains were generated based on previously characterized temperature sensitive mutants (see supplementary table 1). The snq1 and pdr5 deletions were introduced in each strain by strain mating with MDY326 or PCR-mediated deletion (33, 34). Overexpression strains were generated by transforming 2p yeast shuttle vectors carrying the gene of interest with the native promoter into the tim10-1 strain using a standard LiCl protocol (35). Transformed yeast was maintained on selective media appropriate for the plasmid's auxotrophic marker. Strains lacking mitochondrial DNA (rho null) were generated by two rounds of selection of the parent on YPD plates supplemented with ethidium bromide (40 μg/ml) followed by two rounds of single colony selection on YPD plates.
A primary screen was performed using freshly streaked tim10-1 diluted in YPD to an OD600 of approximately 0.0002 and kept on ice throughout the screening run. […] Each plate was shaken in a Beckman orbital shaker to resuspend settled cells, and the OD600 in each well was read by a Wallac Victor plate reader (Perkin Elmer). The top 600 growth inhibitory compounds were determined and assembled into two plates. […]

[4] = biological target: T1, Erv1 (Saccharomyces cerevisiae, UniProt P27882); assay: In vitro Erv1 oxidase activity, Amplex Red-HRP assay; format: biochemical, yeast
T1 construct: made in house
T1 sequence (P27882 1-189): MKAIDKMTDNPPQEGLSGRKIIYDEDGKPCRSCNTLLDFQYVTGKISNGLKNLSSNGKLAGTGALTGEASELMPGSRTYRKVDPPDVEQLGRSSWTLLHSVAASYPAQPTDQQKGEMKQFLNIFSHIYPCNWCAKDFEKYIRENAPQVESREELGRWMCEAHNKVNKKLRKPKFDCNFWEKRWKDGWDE
Method: The primary chemical screen used fresh recombinant Erv1 (in buffer 30 mM Hepes, pH 7.4, 100 mM NaCl, 1 mM EDTA) at a concentration of 10 μM, which was expressed as described previously. […] A Biomek FX (Beckman Coulter) was used to pin transfer 0.5 μl of compound from 1 mM stock or DMSO to respective wells. Approximate screening
concentration was 12.5 μM. After completed compound transfer, all plates were incubated at 25° C. in a humidified incubator for 1 hour. A Titertek multidrop was used to dispense 15 μl of Amplex Red-horseradish peroxidase (HRP) (Sigma) mix into all wells of the 384-well plate. The final concentration of Amplex Red and HRP were 46 μM and 0.092 U/ml, respectively. The Amplex Red-HRP solution was shielded from light during the entire experiment. The plates were incubated for an additional 10 min and then 15 μl of the substrate DTT (20 μM) was added to initiate the reduction of 02 to H2O2. […] Plates were then read at an endpoint using an excitation wavelength of 545 nm and an emission wavelength of 590 nm. […]
H2O2 production was measured using a standard fluorometric assay with Amplex Red and horseradish peroxidase (HRP). […] Fluorescence intensity was measured and reactions that were inhibited by more than 50% were picked as potential Erv1 inhibitors and selected for secondary analysis.

[5] = test system: HSF1 hESCs; assay: Assays in human embryonic stem cells (HSF1); format: cell-based; conditions: 20 μM; alkaline phosphatase staining
Method: Human embryonic stem cell (hESCs) line hSF1 was cultured in Stem Pro SFM (Gibco) supplemented with 10 ng/ml bFGF on Matrigel (BD Biosciences) coated plates under 5% CO2, 95% air. Differentiation involved culturing cells in Stem Pro SFM with 10 μM retinoic acid (Acros Organics) for 4 days. Cells were treated with the specific concentration of the compounds or 1% DMSO as a control. For the induction of apoptosis, cells were exposed to 20 μM actinomycin D (Sigma) with or without 100 μM z-VAD-FMK (MP Biomedical). Following treatment, cells were fixed with 3.7% formaldehyde for indirect immunofluorescence study or lysed with Triton buffer (25 mM Tris-HCl pH 7.5, 150 mM NaCl, 1% Triton X-100, 1 mM EDTA) for analysis by SDS-PAGE. Bright field images were acquired with Exi Blue (QImaging). Immunofluorescent images were acquired with a 63× oil immersion objective on an LSM 5 PASCAL Laser Scanning Microscope (Carl Zeiss). Antibodies against cyt c (BD Pharmingen), Tom20 (Santa Cruz), cleaved caspase-3 (Cell Signaling) and poly (ADP-ribose) polymerase (Cell Signaling) were purchased from the indicated vendors. Alkaline phosphatase activity staining was performed with the leukocyte alkaline phosphatase kit (Sigma) as per manufacturer's protocol. […]

Row | SMILES | MIC50 [1] | MIC50 [2] | sensitivity of rho null strains [3] | IC50 [4] | time at which hESC viability started to decline [5]
1 | NC(=S)N/N=C/c1c(O)c(Br)cc2oc3c(c12)CCCC3 [MitoBloCK-1] | 10 µM (≈ 3.68 µg/mL) | > 200 µM | sensitive | – | –
2 | Oc1c(Cl)cc(Cl)cc1/C=N/c1ccc(Nc2ccccc2)cc1 [MitoBloCK-6] | – | – | – | 900 nM | > 5 h

— patent publication US10758513B2, “Modulators of mitochondrial protein import” (THE REGENTS OF THE UNIVERSITY OF CALIFORNIA, priority 2011, dated 2020)
